Data on 25 compounds can be found in patent publication US11008317B2, “Triazolopyridine inhibitors of myeloperoxidase and/or EPX” (priority 2016, dated 2021).

Test [1] deals with T1, myeloperoxidase (Homo sapiens, UniProt P05164).
T1 sequence (P05164 49-745): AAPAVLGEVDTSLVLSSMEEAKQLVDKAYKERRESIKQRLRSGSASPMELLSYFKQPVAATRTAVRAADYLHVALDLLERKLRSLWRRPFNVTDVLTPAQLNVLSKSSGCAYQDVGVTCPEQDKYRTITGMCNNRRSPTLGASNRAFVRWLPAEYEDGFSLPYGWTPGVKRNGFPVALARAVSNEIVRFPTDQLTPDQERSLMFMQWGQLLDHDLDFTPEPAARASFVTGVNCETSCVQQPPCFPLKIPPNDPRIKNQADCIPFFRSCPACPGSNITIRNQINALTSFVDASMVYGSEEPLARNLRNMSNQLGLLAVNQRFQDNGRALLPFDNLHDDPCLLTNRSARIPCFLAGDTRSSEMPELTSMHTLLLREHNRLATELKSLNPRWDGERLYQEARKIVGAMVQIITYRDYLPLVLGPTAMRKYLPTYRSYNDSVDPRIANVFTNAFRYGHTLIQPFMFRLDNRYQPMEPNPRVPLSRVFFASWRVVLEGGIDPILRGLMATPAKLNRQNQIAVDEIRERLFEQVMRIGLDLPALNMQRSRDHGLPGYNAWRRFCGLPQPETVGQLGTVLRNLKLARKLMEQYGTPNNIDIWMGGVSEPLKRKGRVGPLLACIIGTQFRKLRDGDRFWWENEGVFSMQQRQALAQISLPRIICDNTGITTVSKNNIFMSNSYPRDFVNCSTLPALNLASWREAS
The experiment in a line: MPO Chlorination Assay (APF Assay). The class given is biochemical. The note with it: potency range class, read-out: APF Assay IC50 value.

In test [2] the target is T1, myeloperoxidase. The test is described as follows: MPO Peroxidation Assay (Amplex Red Assay). Conditions: potency range class, read-out: Amplex Red Assay IC50 value. It counts as biochemical.

For the compound `COc1ccncc1[C@H]1CC[C@@H](NCCC(c2ccccc2)c2cc(N)nc3[nH]nnc23)CC1` (some centres unmarked) [Example 138, 7-(1-phenyl-3-{[(1s,4s)-4-(4-methoxypyridin-3-yl)cyclohexyl]amino}propyl)-3H-[1,2,3]triazolo [4,5-b]pyridin-5-amine], the IC50 at myeloperoxidase [1] and on myeloperoxidase [2] was 1000 to 10000 nM in each case.

On to `Nc1cc(C(CCN[C@H]2CC[C@H](c3ccncc3)CC2)c2ccccc2)c2nn[nH]c2n1` (stereo partly drawn) [Example 139, 7-(1-phenyl-3-{[(trans)-4-(pyridin-4-yl)cyclohexyl]amino}propyl)-3H-[1,2,3] triazolo[4,5-b] pyridin-5-amine], for which the values for the IC50 on myeloperoxidase [1] and on myeloperoxidase [2] were 1 to 100 nM and 101 to 999 nM, respectively.

Consider `Nc1cc(C(CCN[C@H]2CC[C@@H](c3ccncc3)CC2)c2ccccc2)c2nn[nH]c2n1` (some centres unmarked) [Example 141, 7-(1-phenyl-3-{[(1s,4s)-4-(pyridin-4-yl)cyclohexyl]amino}propyl)-3H-[1,2,3]triazolo [4,5-b]pyridin-5-amine], for which the IC50 at myeloperoxidase [1] and on myeloperoxidase [2] was 101 to 999 nM in each case.

For `Nc1cc(C(CCNC2(Cc3ccccc3)CCC(c3ccccc3)CC2)c2ccccc2)c2nn[nH]c2n1` (centres unmarked) [Example 142, 7-{3-[(1-benzyl-4-phenylcyclohexyl)amino]-1-phenylpropyl}-3H-[1,2,3]triazolo[4,5-b]pyridin-5-amine], the values for the IC50 on myeloperoxidase [1] and at myeloperoxidase [2] were 101 to 999 nM and 1000 to 10000 nM, respectively.

For the compound `Nc1cc(C(CCNC2(c3ccccc3)CCC(c3ccccc3)CC2)c2ccccc2)c2nn[nH]c2n1` (centres unmarked) [Example 144, 7-{3-[(1,4-diphenylcyclohexyl)amino]-1-phenylpropyl}-3H-[1,2,3]triazolo [4,5-b]pyridin-5-amine], the IC50 at myeloperoxidase [1] is 101 to 999 nM; on myeloperoxidase [2], 1000 to 10000 nM.

`Nc1cc(C(CCNC23CCC(c4ccccc4)(CC2)C(O)C3)c2ccccc2)c2nn[nH]c2n1` (centres unmarked) [Example 145, 4-[(3-{5-amino-3H-[1,2,3]triazolo[4,5-b]pyridin-7-yl}-3-phenylpropyl)amino]-1-phenylbicyclo [2.2.2]octan-2-ol]: the IC50 on myeloperoxidase [1] and at myeloperoxidase [2] was 1 to 100 nM each time.

`Nc1cc(C(CCN[C@H]2CC[C@H](n3cncn3)CC2)c2ccccc2)c2nn[nH]c2n1` (stereo partly drawn) [Example 146, 7-(1-phenyl-3-{[(trans)-4-(1H-1,2,4-triazol-1-yl)cyclohexyl]amino}propyl)-3H-[1,2,3] triazolo[4,5-b] pyridin-5-amine]: the results for the IC50 on myeloperoxidase [1] and on myeloperoxidase [2] were 101 to 999 nM and 1000 to 10000 nM, respectively.

On to `CC1CC2(NCCC(c3ccccc3)c3cc(N)nc4[nH]nnc34)CCC1(c1ccccc1)CC2` (centres unmarked) [Example 147, 7-[3-({3-methyl-4-phenylbicyclo[2.2.2]octan-1-yl}amino)-1-phenylpropyl]-3H-[1,2,3]triazolo [4,5-b]pyridin-5-amine], for which the IC50 on myeloperoxidase [1] and at myeloperoxidase [2] was 1 to 100 nM throughout.

In the case of `COC1CC2(NCCC(c3ccccc3)c3cc(N)nc4[nH]nnc34)CCC1(c1ccccc1)CC2` (centres unmarked) [Example 148, 7-[3-({3-methoxy-4-phenylbicyclo [2.2.2]octan-1-yl}amino)-1-phenylpropyl]-3H-[1,2,3]triazolo[4,5-b]pyridin-5-amine], the IC50 on myeloperoxidase [1] and on myeloperoxidase [2] was 1 to 100 nM in each case.

Turning to `Nc1cc(C(CCNC2CC3CCC(C2)C3c2ccccc2)c2ccccc2)c2nn[nH]c2n1` (centres unmarked) [Example 149, 7-[1-phenyl-3-({8-phenylbicyclo[3.2.1]octan-3-yl}amino)propyl]-3H-[1,2,3]triazolo[4,5-b] pyridin-5-amine], the IC50 at myeloperoxidase [1] lay within 101 to 999 nM; on myeloperoxidase [2] it was 1000 to 10000 nM.

`Nc1cc(C(CCNC2CC[C@H](c3ccccc3)[C@@H](O)C2)c2ccccc2)c2nn[nH]c2n1` (stereo partly drawn) [Example 150, (1S,2R)-5-[(3-{5-amino-3H-[1,2,3]triazolo[4,5-b]pyridin-7-yl}-3-phenylpropyl)amino]-2-phenylcyclohexan-1-ol]: the figures for the IC50 on myeloperoxidase [1] and at myeloperoxidase [2] were 1 to 100 nM and 101 to 999 nM, respectively.

As for `Nc1cc(C(CCNC2(C(F)(F)F)CCC(c3ccccc3)CC2)c2ccccc2)c2nn[nH]c2n1` (centres unmarked) [Example 151, 7-(1-phenyl-3-{[4-phenyl-1-(trifluoromethyl)cyclohexyl]amino}propyl)-3H-[1,2,3]triazolo[4,5-b] pyridin-5-amine], the IC50 on myeloperoxidase [1] and at myeloperoxidase [2] was 1000 to 10000 nM each time.

`Nc1cc(C(CCNC23CCC(c4ccccc4)(CC2)CC3O)c2ccccc2)c2nn[nH]c2n1` (centres unmarked) [Example 152, 1-[(3-{5-amino-3H-[1,2,3]triazolo[4,5-b]pyridin-7-yl}-3-phenylpropyl)amino]-4-phenylbicyclo [2.2.2]octan-2-ol]: the IC50 on myeloperoxidase [1] and on myeloperoxidase [2] was 1 to 100 nM in each case.

On to `COC1CC2(c3ccccc3)CCC1(NCC[C@H](c1ccccc1)c1cc(N)nc3[nH]nnc13)CC2` (stereo partly drawn) [Example 153, 7-[(1R)-3-({2-methoxy-4-phenylbicyclo[2.2.2]octan-1-yl}amino)-1-phenylpropyl]-3H-[1,2,3]triazolo[4,5-b]pyridin-5-amine], for which the IC50 on myeloperoxidase [1] and at myeloperoxidase [2] was 1 to 100 nM in each case.

Take `Nc1cc([C@H](CCNC23CCC(c4ccccc4)(CC2)C(O)C3)c2ccccc2)c2nn[nH]c2n1` (stereo partly drawn) [Example 154, 4-{[(3R)-3-{5-amino-3H-[1,2,3]triazolo [4,5-b]pyridin-7-yl}-3-phenylpropyl]amino}-1-phenylbicyclo [2.2.2]octan-2-ol]: the IC50 at myeloperoxidase [1] and on myeloperoxidase [2] was 1 to 100 nM throughout.

On to `N#Cc1cccc(C(CCNC2CCC(c3ccccc3)CC2)c2cc(N)nc3[nH]nnc23)c1` (centres unmarked) [Example 155, 3-(1-{5-amino-3H-[1,2,3]triazolo [4,5-b]pyridin-7-yl}-3-[(4-phenylcyclohexyl)amino]propyl)benzonitrile], for which the IC50 lay in the range of 1 to 100 nM on myeloperoxidase [1] and 101 to 999 nM on myeloperoxidase [2].

For the compound `Nc1cc(C(CCN[C@H]2CC[C@H](c3ccccc3)CC2)c2cccc(F)c2)c2nn[nH]c2n1` (stereo partly drawn) [Example 156, 7-[1-(3-fluorophenyl)-3-{[(trans)-4-phenylcyclohexyl]amino}propyl]-3H-[1,2,3]triazolo [4,5-b]pyridin-5-amine], the values for the IC50 at myeloperoxidase [1] and at myeloperoxidase [2] were 1 to 100 nM and 101 to 999 nM, respectively.

As for `Nc1cc(C(CCN[C@H]2CC[C@H](c3ccccc3)CC2)c2ccccc2F)c2nn[nH]c2n1` (stereo partly drawn) [Example 157, 7-[1-(2-fluorophenyl)-3-{[(trans)-4-phenylcyclohexyl]amino}propyl]-3H-[1,2,3]triazolo [4,5-b]pyridin-5-amine], the IC50 at myeloperoxidase [1] lay in the range of 1 to 100 nM; at myeloperoxidase [2], 101 to 999 nM.

For `COc1cccc(C(CCN[C@H]2CC[C@H](c3ccccc3)CC2)c2cc(N)nc3[nH]nnc23)c1` (stereo partly drawn) [Example 158, 7-[1-(3-methoxyphenyl)-3-{[(trans)-4-phenylcyclohexyl]amino}propyl]-3H-[1,2,3]triazolo [4,5-b]pyridin-5-amine], the values for the IC50 on myeloperoxidase [1] and on myeloperoxidase [2] were 1 to 100 nM and 101 to 999 nM, respectively.

As for `N#Cc1ccc(C(CCN[C@H]2CC[C@H](c3ccccc3)CC2)c2cc(N)nc3[nH]nnc23)cc1` (stereo partly drawn) [Example 159, 4-(1-{5-amino-3H-[1,2,3]triazolo [4,5-b]pyridin-7-yl}-3-{[(trans)-4-phenylcyclohexyl]amino}propyl) benzonitrile], the results for the IC50 at myeloperoxidase [1] and at myeloperoxidase [2] were 1000 to 10000 nM and 101 to 999 nM, respectively.

As to `NCc1ccc(C(CCN[C@H]2CC[C@H](c3ccccc3)CC2)c2cc(N)nc3[nH]nnc23)cc1` (stereo partly drawn) [Example 160, 7-{1-[4-(aminomethyl)phenyl]-3-{[(trans)-4-phenylcyclohexyl]amino}propyl}-3H-[1,2,3]triazolo[4,5-b]pyridin-5-amine], the IC50 on myeloperoxidase [1] lay within 1000 to 10000 nM; on myeloperoxidase [2] it was 101 to 999 nM.

For `N#Cc1ccccc1C(CCN[C@H]1CC[C@H](c2ccccc2)CC1)c1cc(N)nc2[nH]nnc12` (stereo partly drawn) [Example 161, 2-(1-{5-amino-3H-[1,2,3]triazolo [4,5-b]pyridin-7-yl}-3-{[(trans)-4-phenylcyclohexyl]amino}propyl) benzonitrile], the IC50 at myeloperoxidase [1] lay in the range of 101 to 999 nM; on myeloperoxidase [2], 1000 to 10000 nM.

Turning to `Nc1cc(C(CCN[C@H]2CC[C@H](c3ccccc3)CC2)c2cccc(Cl)c2)c2nn[nH]c2n1` (stereo partly drawn) [Example 162, 7-[1-(3-chlorophenyl)-3-{[(trans)-4-phenylcyclohexyl]amino}propyl]-3H-[1,2,3]triazolo [4,5-b]pyridin-5-amine], the values for the IC50 on myeloperoxidase [1] and at myeloperoxidase [2] were 1 to 100 nM and 101 to 999 nM, respectively.

In the case of `Nc1cc(C(CCN[C@H]2CC[C@H](c3ccccc3)CC2)c2cccc(CO)c2)c2nn[nH]c2n1` (stereo partly drawn) [Example 164, [3-(1-{5-amino-3H-[1,2,3]triazolo [4,5-b]pyridin-7-yl}-3-{[(trans)-4-phenylcyclohexyl]amino}propyl)phenyl]methanol], the IC50 at myeloperoxidase [1] lay in the range of 1 to 100 nM; on myeloperoxidase [2], 1000 to 10000 nM.

Regarding `Nc1cc(C(CCN[C@H]2CC[C@H](c3ccccc3)CC2)c2cccc(S(N)(=O)=O)c2)c2nn[nH]c2n1` (stereo partly drawn) [Example 165, 3-(1-{5-amino-3H-[1,2,3]triazolo [4,5-b]pyridin-7-yl}-3-{[(trans)-4-phenylcyclohexyl]amino}propyl) benzene-1-sulfonamide], the IC50 at myeloperoxidase [1] and on myeloperoxidase [2] was 101 to 999 nM in each case.

What is called IC50 is the midpoint of a concentration-inhibition curve.
